Experimental data as given in ChEMBL document CHEMBL1201862, “PubChem BioAssay data set” (2004).
Active and inactive are the calls of the source.

Experiments:
Paired box protein Pax-8 = Paired box protein Pax-8 (Homo sapiens, UniProt Q06710); experiment: inhibitors of PAX8-driven TPO luciferase reporter, dose response, RMG-I cells, cherry-pick (AID 687027); assay type: functional, cell-based;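 further: luciferase reporter driven by Pax8 target thyroperoxidase promoter measured by SteadyGlo luminescence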
Chain of Paired box protein Pax-8 (Q06710 whole entry): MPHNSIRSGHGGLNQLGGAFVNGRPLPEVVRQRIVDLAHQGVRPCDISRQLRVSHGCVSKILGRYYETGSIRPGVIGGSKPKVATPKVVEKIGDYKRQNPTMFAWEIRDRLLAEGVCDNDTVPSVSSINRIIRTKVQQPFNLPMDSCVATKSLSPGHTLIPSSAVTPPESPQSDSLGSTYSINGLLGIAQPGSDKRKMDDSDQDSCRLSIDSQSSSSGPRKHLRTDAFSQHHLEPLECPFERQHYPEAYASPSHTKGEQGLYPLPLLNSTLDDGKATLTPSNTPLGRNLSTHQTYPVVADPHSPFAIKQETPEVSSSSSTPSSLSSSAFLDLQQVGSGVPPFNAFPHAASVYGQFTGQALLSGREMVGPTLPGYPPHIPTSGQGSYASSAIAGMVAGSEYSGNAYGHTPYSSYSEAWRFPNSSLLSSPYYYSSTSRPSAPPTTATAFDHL

[1] = A2780 ovarian cancer cell cytotoxicity, dose response, cytotoxicity control, plate reader, dry powder samples (AID 743046); assay type: functional, cell-based
[2] = NIH:OVCAR-3 ovarian cancer cell cytotoxicity, dose response, PAX8 inhibitor project, plate reader, dry powder samples (AID 743044); assay type: functional, cell-based
[3] = CEM21 lymphoblast cell cytotoxicity, dose response, cytotoxicity control for viral fusion inhibitor project, CellTiter-Glo luminescence, cherry-picked (AID 652042); assay type: functional, cell-based;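 further: potency for signal decrease meaning cytotoxicity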
[4] = inhibitors of HIV Env-driven cell fusion, dose response, cherry-pick (AID 652057); assay type: functional, cell-based
[5] = inhibitors of PGC1a acetylation in cells, dose response, cell-based, cherry-picked samples (AID 720514); assay type: functional;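 further: potency may reflect raised or lowered acetylation signal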
[6] = P. falciparum Dd2 growth inhibitors, dose response, SYBR Green, cherry-picked samples (AID 1159567); assay type: functional, cell-based
HEK293 = experiment: inhibitors of LMP1-driven NF-kB reporter, dose response, cell-based, HEK293, luciferase, cherry-pick (AID 588343); assay type: functional; conditions: Homo sapiens
[7] = A549 cell cytotoxicity, dose response, cytotoxicity control, plate reader, cherry-pick, antagonist series (AID 743412); assay type: functional, cell-based
[8] = LGR2 antagonists, dose response, cell-based, HEK293, CRE-luciferase reporter, cherry pick, set 2 (AID 743343); assay type: functional;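 further: transfected cells were stimulated with diluted bursicon conditioned medium after compound addition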
[9] = MC4R antagonists, dose response, counter-screen for LGR2 antagonist project, cell-based, plate reader, cherry pick (AID 743444); assay type: functional;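 further: transfected HEK 293 cells stimulated with alpha-MSH peptide; potency of inhibitors of the alpha-MSH evoked signal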
[10] = T. cruzi growth inhibition in host cells, dose response, cell-based, plate reader, dry powder, set 2 (AID 652275); assay type: functional
[11] = molecular target: T1, Oxysterols receptor LXR-beta (Homo sapiens, UniProt P55055); assay type: functional, cell-based;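 further: agonist activity at LXR measured by a cell-based luminescence readout across a dose range, run as a counterscreen for daf-12 agonists; HEK293 cells with Gal4-LXR fusion and GAL4-driven luciferase reporter; potency for activation of Gal4-LXR reporter so compounds are agonists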
T1 sequence (P55055 whole entry): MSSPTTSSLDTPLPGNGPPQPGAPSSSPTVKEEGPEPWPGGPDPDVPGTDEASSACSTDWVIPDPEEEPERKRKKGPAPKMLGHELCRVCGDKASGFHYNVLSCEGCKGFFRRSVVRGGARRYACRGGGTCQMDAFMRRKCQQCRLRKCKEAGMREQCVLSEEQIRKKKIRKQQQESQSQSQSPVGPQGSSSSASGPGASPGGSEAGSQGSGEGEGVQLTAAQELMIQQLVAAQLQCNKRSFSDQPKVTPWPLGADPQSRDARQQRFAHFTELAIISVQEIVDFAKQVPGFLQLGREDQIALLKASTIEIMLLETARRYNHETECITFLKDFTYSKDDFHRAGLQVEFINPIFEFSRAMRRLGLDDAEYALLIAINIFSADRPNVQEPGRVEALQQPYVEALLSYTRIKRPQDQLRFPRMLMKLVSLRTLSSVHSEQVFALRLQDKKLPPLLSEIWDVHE

[12] = cytotoxicity in OVCAR8 ovarian cancer cells, dose response, PAX8 project, cell-based, plate reader, dry powder samples (AID 743197); assay type: functional; conditions: OVCAR-8
[13] = NIH-3T3 fibroblast cytotoxicity, dose response, cytotoxicity control, cell-based, fluorescence, Alamar Blue, secondary assay (AID 2327); assay type: functional;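 further: NIH-3T3 mouse fibroblasts cultured with fluconazole at 8 µg/mL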
[14] = test system: Streptococcus sp. 'group A'; experiment: growth inhibition of control SK(-) GAS strain, dose response, counter-screen for streptokinase expression inhibitor project, luminescence, kanamycin, BacTiterGlo, confirmation (AID 1900); assay type: functional, organism-based
[15] = C. albicans growth with fluconazole, confirmation, fluorescence, retest (AID 2467); assay type: functional, cell-based
[16] = molecular target: T2, Serine/threonine-protein phosphatase (Candida dubliniensis (strain CD36 / CBS 7987 / NCPF 3949 / NRRLY-17841) (Yeast), UniProt B9W6M3); experiment: calcineurin pathway inhibitors in yeast reporter, dose response, S. cerevisiae, CDRE-lacZ, luminescence, secondary (AID 2388); assay type: functional, cell-based;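 further: yeast reporter cells carrying a calcineurin-responsive lacZ construct stimulated with calcium chloride; luminescent beta-galactosidase reporter signal in whole cells rather than isolated phosphatase activity; potency for inhibition where a drop in reporter signal means calcineurin blockade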
T2 sequence (B9W6M3 whole entry): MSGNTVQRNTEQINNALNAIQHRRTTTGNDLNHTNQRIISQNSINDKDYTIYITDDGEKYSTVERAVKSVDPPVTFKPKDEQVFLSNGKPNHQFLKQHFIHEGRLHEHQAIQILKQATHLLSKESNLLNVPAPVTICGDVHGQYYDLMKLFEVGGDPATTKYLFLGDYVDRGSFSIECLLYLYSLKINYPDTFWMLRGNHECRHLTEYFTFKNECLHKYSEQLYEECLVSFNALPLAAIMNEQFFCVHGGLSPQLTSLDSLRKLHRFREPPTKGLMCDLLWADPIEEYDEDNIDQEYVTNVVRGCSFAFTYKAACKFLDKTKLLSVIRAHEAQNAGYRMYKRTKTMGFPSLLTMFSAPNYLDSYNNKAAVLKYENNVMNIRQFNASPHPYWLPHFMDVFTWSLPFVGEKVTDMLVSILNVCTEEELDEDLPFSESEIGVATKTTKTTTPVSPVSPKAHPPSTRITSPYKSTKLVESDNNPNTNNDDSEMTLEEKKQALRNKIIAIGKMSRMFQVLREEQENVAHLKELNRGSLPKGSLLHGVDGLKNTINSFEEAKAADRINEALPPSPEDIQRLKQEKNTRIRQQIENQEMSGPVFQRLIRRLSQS

[17] = molecular target: T3, Kappa-type opioid receptor (Homo sapiens, UniProt P41145); assay type: functional
T3 sequence (P41145 whole entry): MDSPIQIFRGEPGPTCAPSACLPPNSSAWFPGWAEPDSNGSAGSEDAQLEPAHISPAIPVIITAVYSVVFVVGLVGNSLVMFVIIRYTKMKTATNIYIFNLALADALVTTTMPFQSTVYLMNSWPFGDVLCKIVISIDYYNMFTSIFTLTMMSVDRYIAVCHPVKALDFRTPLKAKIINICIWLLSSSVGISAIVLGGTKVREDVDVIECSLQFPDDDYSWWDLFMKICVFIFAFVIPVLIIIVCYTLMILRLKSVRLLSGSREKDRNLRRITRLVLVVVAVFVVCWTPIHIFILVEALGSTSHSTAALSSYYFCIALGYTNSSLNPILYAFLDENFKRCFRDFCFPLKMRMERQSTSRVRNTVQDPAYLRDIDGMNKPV

Beta-galactosidase = Beta-galactosidase (Escherichia coli, UniProt Q8VNN2); assay type: functional
Chain of Beta-galactosidase (Q8VNN2 whole entry): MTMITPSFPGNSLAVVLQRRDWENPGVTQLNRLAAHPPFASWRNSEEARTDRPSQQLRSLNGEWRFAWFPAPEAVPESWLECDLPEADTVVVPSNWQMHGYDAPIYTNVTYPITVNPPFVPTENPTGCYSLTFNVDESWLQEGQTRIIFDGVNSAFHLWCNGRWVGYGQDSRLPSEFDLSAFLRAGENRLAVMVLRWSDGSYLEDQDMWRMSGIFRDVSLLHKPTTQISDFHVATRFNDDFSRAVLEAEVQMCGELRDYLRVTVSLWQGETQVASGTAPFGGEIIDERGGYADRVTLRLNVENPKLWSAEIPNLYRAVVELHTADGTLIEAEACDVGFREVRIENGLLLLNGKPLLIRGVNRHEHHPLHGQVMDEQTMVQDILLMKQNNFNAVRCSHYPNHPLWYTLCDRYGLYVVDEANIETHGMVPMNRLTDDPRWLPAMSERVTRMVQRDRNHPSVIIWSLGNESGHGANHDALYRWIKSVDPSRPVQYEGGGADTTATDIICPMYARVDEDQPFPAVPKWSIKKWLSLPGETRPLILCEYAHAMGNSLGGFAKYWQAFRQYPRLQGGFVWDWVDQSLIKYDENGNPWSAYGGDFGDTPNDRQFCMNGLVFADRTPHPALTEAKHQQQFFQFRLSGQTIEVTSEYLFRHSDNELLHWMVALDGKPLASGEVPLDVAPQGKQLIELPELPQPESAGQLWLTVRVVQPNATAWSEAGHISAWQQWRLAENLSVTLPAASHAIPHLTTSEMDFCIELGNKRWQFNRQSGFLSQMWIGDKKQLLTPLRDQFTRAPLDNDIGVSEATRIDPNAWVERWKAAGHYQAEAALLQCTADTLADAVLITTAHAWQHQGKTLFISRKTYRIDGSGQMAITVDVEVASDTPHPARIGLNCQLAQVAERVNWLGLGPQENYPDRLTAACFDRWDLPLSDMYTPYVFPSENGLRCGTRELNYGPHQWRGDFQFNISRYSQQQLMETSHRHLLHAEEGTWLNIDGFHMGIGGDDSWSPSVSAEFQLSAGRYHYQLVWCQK

[18] = molecular target: T3, Kappa-type opioid receptor; assay type: functional; remark: listed apart in the source
Streptococcus = experiment: Group A Streptococcus viability loss, dose response, counter-screen for streptokinase expression inhibitor project, luminescence, BacTiterGlo (AID 1915); assay type: functional, organism-based;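 further: potency for reduction of bacterial viability or growth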
[19] = molecular target: Heat shock protein HSP 90-alpha (Homo sapiens, UniProt P07900); assay type: functional, organism-based
Vero = experiment: cells; assay type: functional; conditions: Chlorocebus sabaeus
[20] = molecular target: ATP-dependent molecular chaperone HSP82 (Candida albicans (strain WO-1) (Yeast), UniProt C4YTQ8); experiment: loss of DOC-induced GRE-beta-galactosidase reporter signal, dose response, Hsp90 inhibitor project, S. cerevisiae, luminescence (AID 2400); assay type: functional, cell-based;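 further: beta-galactosidase luminescence from glucocorticoid response element reporter as proxy for Hsp90 function; inhibitor potency where signal loss means Hsp90 inhibition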
Chain of ATP-dependent molecular chaperone HSP82 (C4YTQ8 whole entry): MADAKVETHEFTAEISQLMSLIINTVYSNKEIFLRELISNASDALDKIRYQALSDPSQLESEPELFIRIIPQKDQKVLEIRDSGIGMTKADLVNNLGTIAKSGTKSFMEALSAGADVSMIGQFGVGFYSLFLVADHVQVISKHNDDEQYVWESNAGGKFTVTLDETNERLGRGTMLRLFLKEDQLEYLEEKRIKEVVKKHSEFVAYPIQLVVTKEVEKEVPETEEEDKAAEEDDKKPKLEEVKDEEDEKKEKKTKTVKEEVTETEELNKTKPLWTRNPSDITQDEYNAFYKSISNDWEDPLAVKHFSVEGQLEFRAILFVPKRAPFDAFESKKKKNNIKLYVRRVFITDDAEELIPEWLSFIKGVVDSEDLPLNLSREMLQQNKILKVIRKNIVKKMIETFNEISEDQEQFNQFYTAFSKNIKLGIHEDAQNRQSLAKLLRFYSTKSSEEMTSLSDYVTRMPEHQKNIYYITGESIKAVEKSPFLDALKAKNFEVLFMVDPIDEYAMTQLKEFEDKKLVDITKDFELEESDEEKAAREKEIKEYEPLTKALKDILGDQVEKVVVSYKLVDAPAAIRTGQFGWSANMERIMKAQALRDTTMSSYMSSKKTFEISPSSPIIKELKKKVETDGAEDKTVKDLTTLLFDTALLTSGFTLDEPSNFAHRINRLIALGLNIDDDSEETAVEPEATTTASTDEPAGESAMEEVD

[21] = molecular target: Matrix metalloproteinase-14 (Homo sapiens, UniProt P50281); experiment: Dose Response confirmation of uHTS hits for a small molecule inhibitors of MT1-MMP activation in a fluorescence assay set 1.; assay type: functional

Q: Which results are given for `C[C@H](CO)N1C[C@H](C)[C@@H](CN(C)S(=O)(=O)c2ccccc2)OCCCC[C@H](C)Oc2ccc(NS(=O)(=O)c3ccc(Cl)cc3)cc2C1=O`?
A: AC50 (Paired box protein Pax-8): 5.23 µM (active); AC50 [1]: 49.8 µM (active); AC50 [2]: 32.2 µM (active)

Q: With `Cc1ccc(NC(=O)c2ccc(OCC3CCCO3)cc2)cc1Cl` (stereo not given) as the compound, how does the AC50 [3] read?
A: Its AC50 is 50 µM (active).

Q: For `Cc1ccc(-c2ccc3c(c2)O[C@@H](CN(C)C(=O)C2CCCCC2)[C@H](C)CN([C@H](C)CO)S3(=O)=O)cc1`, which AC50 [4] is on record?
A: Its AC50 is 20.7 µM (active).

Q: And the AC50 [3]?
A: Its AC50 is 22 µM (active).

Q: And the AC50 [5]?
A: The AC50 was 15 µM (active).

Q: What about the AC50 [6] of the same compound?
A: The AC50 was 3.07 µM (active).

Q: Which AC50 (HEK293) does the source give for `O=C(Nc1ccc(N2CCOCC2)cc1)c1cnccn1` here?
A: The AC50 was 2.09 µM (active).

Q: What about the AC50 [7] of the same compound?
A: Its AC50 is > 52 µM (inactive).

Q: What about the AC50 [8] of the same compound?
A: The AC50 was 4.37 µM (active).

Q: And the AC50 [9]?
A: The AC50 was 3.9 µM (active).

Q: With `OC[C@H]1[C@H](c2ccc(-c3ccccc3)cc2)[C@@H]2CN(Cc3cncnc3)CCCCN12` as the compound, how does the AC50 [10] read?
A: Its AC50 is 0.185 µM (active).

Q: Which EC50 [11] does the source give for `CCOc1ccc(-c2c(=O)n(O)c3ccccc3[n+]2[O-])cc1` here?
A: The EC50 was > 67.5 µM (inactive).

Q: With `COc1ccc(NC(=O)N2CCCCN3[C@@H](CO)[C@@H](c4ccc(C5=CCCC5)cc4)[C@@H]3C2)cc1` as the compound, how does the AC50 [1] read?
A: The AC50 was 52.9 µM (active).

Q: What about the AC50 [2] of the same compound?
A: Its AC50 is 41.6 µM (active).

Q: And the AC50 [12]?
A: The AC50 was 64.1 µM (active).

Q: For `CCCn1/c(=N/C(=O)c2ccco2)c(C(=O)OCC)cc2c(=O)n3ccccc3nc21`, which EC50 [11] is on record?
A: The EC50 was > 67.5 µM (inactive).

Q: For `COc1ccc(C)cc1N=Nc1ccc(O)c2ncccc12`, which EC50 [13] is on record?
A: Its EC50 is 11.1 µM (active).

Q: And the EC50 [14]?
A: The EC50 was 0.357 µM (active).

Q: What about the EC50 [15] of the same compound?
A: The EC50 was 0.598 µM (active).

Q: And the EC50 [16]?
A: Its EC50 is > 180 µM (inactive).

Q: And the IC50 [17]?
A: Its IC50 is > 31.5 µM (inactive).

Q: What about the EC50 (Beta-galactosidase) of the same compound?
A: The EC50 was 23.6 µM (active).

Q: And the IC50 [18]?
A: Its IC50 is greater than 32 µM.

Q: And the EC50 (Streptococcus)?
A: The EC50 was 2.67 µM (active).

Q: What about the AC50 [19] of the same compound?
A: The AC50 was 1.57 µM (active).

Q: What about the CC50 (Vero) of the same compound?
A: The CC50 was 5.17 µM (active).

Q: What about the EC50 [20] of the same compound?
A: The EC50 was 2.92 µM (active).

Q: What about the IC50 [21] of the same compound?
A: The IC50 was 23.8 µM (inactive).
